# Legend:
# [1] = tested on: ER activation of AP-1 (Coll73-LUC); test: Inhibitor screen: ER transiently transfected with Coll73-LUC in HeLa or HepG2 cells, hormone plus prospective inhibitor; type: cell-based
# Procedure: (§1) An estrogen receptor (ER) was transiently transfected into either HeLa or HepG2 cells along with an AP-1 responsive reporter gene, Coll73-LUC. The transformed cells were then contacted with antiestrogens or estrogen in combination with prospective inhibitor drugs. […] Luciferase was measured in cell extracts as an indication of AP-1 dependent promoter activity.
# [2] = tested on: HE15 activation of AP-1 activity; test: Inhibitor screen: HE15 (constitutive ER) activation of AP-1 activity; type: cell-based; conditions: HeLa cells
# Procedure: as §1
# MCF-7 cell = conditions: Braacke et al. 1991; cited from earlier work
# [3] = tested on: human ER at the AP-1 site of the collagenase promoter (coll73); test: Coll73-LUC luciferase reporter (collagenase promoter with AP-1 site) in cells transfected with human ER expression vector HEO; type: cell-based; conditions: for Coll73 Luciferase Activity: relative to no ER; for half maximal dose relative to that for estrogen, induction of coll73-LUC: HeLa cells, 5 μg ER expression vector, FIG. 3B
# Procedure: All reporter genes described below have been modified by digestion with EcoR I and Ndel to remove a AP-I site in the backbone of pUG. […] Coll73-LUC was constructed by cloning a BamHI/Pvull fragment, that spanned the luciferase transcription unit, from pMG3 into coll73, which had been digested with BamHI and SmaI to remove the CAT transcription unit.
# (§2) Cells were maintained and transfected as previously described in Webb et al., supra. […] F9 cells were seeded at 30% confluence upon 1.5 cm dishes and transfected overnight by calcium phosphate coprecipitation with 5 μg reporter gene, 1 μg actin β-HCG, and 1 μg of HEO, 300 ng each of c-jun and c-fos expression vectors. The cells were glycerol shocked and refed in growth medium containing hormone or ethanolic vehicle.
# (§3) CAT assays were carried out as described in Webb et al., except that the cells were harvested one to two days after transfection instead of three. CAT activities were defined as the increase in cpm per hour at room temperature (corrected for background) per 100 μl of cell extract, normalized to production of 100 standard units of βHCG, from a co-transfected reporter gene, actin-HCG. […] Light units were defined as the luciferase activity per 100 μl of cell extract per 100 standard units of βHCG. Relative luciferase activities were calculated with respect to the results that were obtained in the absence of ER and hormone, which was set at 1 unit. For the data presented in Table I triplicate points were determined.
# In each case, the cells were transfected with different amounts of the human ER expression vector HEO to determine the optimal response.
# [4] = tested on: human ER at the AP-1 site (collagenase promoter, AP-1-tk), HeLa cells; test: CAT assays of HeLa cells transfected with AP-1 site reporter genes and human ER expression vector; type: cell-based
# Procedure: Representations, at left, show the human collagenase promoter (shaded) and the consensus AP-1 site. […] CAT activity is normalized to a transfection control with the actin promoter driving expression of βHCG. Single representative experiments are shown, error bars represent standard deviation of triplicate hormone treatments.
# as §2, §3
# To further examine the effects of antiestrogens on the AP-1 directed pathway, reporter genes derived from the human collagenase promoter were transfected into HeLa cells.
# ER at classical ERE = test: Reporter genes containing classical EREs (ERE-coll60, ERE-tk) in cells with ER; type: cell-based, human
# Procedure: FIGS. 2A-2C show antiestrogen stimulation of expression in an intact AP-1 Site, but not at classical EREs. […] Representations, at left, show the human collagenase promoter (shaded) and the consensus AP-1 site. CAT activities were from cells maintained in the absence of hormone or saturating concentrations of ICI 164,384 (ICI, 1 μM), tamoxifen (5 μM) or estradiol ([…]). CAT activity is normalized to a transfection control with the actin promoter driving expression of βHCG. Single representative experiments are shown, error bars represent standard deviation of triplicate hormone treatments.
# All reporter genes described below have been modified by digestion with EcoR I and Ndel to remove a AP-I site in the backbone of pUG. Thus, Coll73 and Coll60 are formerly_Coll73 and_Coll60 (Lopez et al. Mol. Cell. Biol. 13:3042-930 (1993)). Coll73-LUC was constructed by cloning a BamHI/Pvull fragment, that spanned the luciferase transcription unit, from pMG3 into coll73, which had been digested with BamHI and SmaI to remove the CAT transcription unit. EREcoll60 and EREcoll73 was prepared by ligation of a consensus ERE ([…], SEQ ID NO:3), into the HindIII site upstream of coll60 and coll73, respectively. All other reporter genes have been previously described (Webb et al. Mol. Endocrinol. 6:157-16725 (1992): and Lopez et al., supra).
# Cells were maintained and transfected as previously described in Webb et al., supra. Hormones were added two hours after plating in the following concentrations, estradiol 100 nM, ICI 164,384 1 μM, tamoxifen 5 μM, to ensure saturation of the response. F9 cells were seeded at 30% confluence upon 1.5 cm dishes and transfected overnight by calcium phosphate coprecipitation with 5 μg reporter gene, 1 μg actin β-HCG, and 1 μg of HEO, 300 ng each of c-jun and c-fos expression vectors. The cells were glycerol shocked and refed in growth medium containing hormone or ethanolic vehicle. In transient transfections, optimal amounts of HEO were employed and were as follows: HeLa (5 μg); NIH3T3 (1 μg); HepG2 (1 μg); SHM (300 ng); SY5Y (300 ng); CEF (100 ng); CV-1 (3 μg); MDA453 (3 μg); CHO (100 ng) and F9 (1 μg).
# CAT assays were carried out as described in Webb et al., except that the cells were harvested one to two days after transfection instead of three. CAT activities were defined as the increase in cpm per hour at room temperature (corrected for background) per 100 μl of cell extract, normalized to production of 100 standard units of βHCG, from a co-transfected reporter gene, actin-HCG. Luciferase assays were performed as described by Brasier et al. Methods Enzymol 216:386-97 (1992)) on similar extracts that were used for CAT assays. Light units were defined as the luciferase activity per 100 μl of cell extract per 100 standard units of βHCG. Relative luciferase activities were calculated with respect to the results that were obtained in the absence of ER and hormone, which was set at 1 unit. For the data presented in Table I triplicate points were determined. Standard deviations were less than 20%.
# The activity of antiestrogens in the AP-1 pathway was also compared with their activity in the classical pathway. […] A promoter with both an ERE and an AP-1 site (ERE-coll73 FIG. 2C) gave a large estrogen response, but retained some response to antiestrogens. Another control reporter, in which the tk promoter was regulated by a classical ERE (ERE-tk FIG. 2C) was also activated by estrogen, but not by antiestrogens.
# [5] = tested on: ER at the AP-1 site of the collagenase promoter; test: Collagenase promoter reporter in cells that express endogenous ER (Ishikawa, MCF-7, ZR-75-1); type: cell-based; conditions: for activation of the collagenase promoter (coll73-CAT) / induction of the collagenase promoter (coll73-LUC): Ishikawa cells; for activation of the collagenase promoter (coll73-CAT): endogenous receptor, FIG. 4A; for induction of the collagenase promoter (coll73-LUC): receptor levels raised by transfection
# Procedure: Left panel, coll73-CAT response with endogenous ER contrasted with the response of an ERE regulated reporter, ERE-coll60CAT. Right panel, coll73-LUC response with 3 μg co-transfected expression vector for human ER. Averages of three individual experiments are shown. […] A single representative experiment with triplicate hormone treatments is shown.
# (§4) To further explore this phenomenon, and to test whether similar hormone effects could be detected at physiological levels of ER, the expression of the collagenase promoter in cells that express endogenous ER was examined.
# [6] = tested on: ER at classical ERE, Ishikawa cells; test: ERE-coll60CAT reporter in Ishikawa cells; type: cell-based
# Source text: Left panel, coll73-CAT response with endogenous ER contrasted with the response of an ERE regulated reporter, ERE-coll60CAT. […] Averages of three individual experiments are shown. […] A single representative experiment with triplicate hormone treatments is shown.
# as §4
# [7] = tested on: ER at classical ERE, ERC1 cells; test: Estrogenic activity screen: CAT reporter gene linked to a classical ERE in ERC1 cells; type: cell-based, human; conditions: ICI 164384 with series 4 compounds
# Procedure: A library of hydroxystilbene derivatives as shown in FIG. 9 was screened for estrogenic activity in cell culture assays using a CAT reporter gene linked to a classical ERE in ERC1 cells as described in Webb et al., supra. After transient transfection with CAT reporter genes, each hydroxystilbene was added to the cultured ERC 1 cells. ER-regulated response was compared either to treatment with 17β-estradiol as a calibration standard or to treatment with an ethanolic vehicle.
# Dose response experiments were performed on the series 4 compounds over a concentration range of 0-100 μM (FIG. 1).
# [8] = CEF (fibroblast), no hormone, saturating hormone
# [9] = CHO (ovary), no hormone, saturating hormone
# [10] = CV-1 (kidney), no hormone, saturating hormone
# [11] = F9 (teratocarcinoma), no hormone, unliganded ER gave 3.2
# [12] = HELA (cervix), no hormone = 1, ICI 1 μM, tamoxifen 5 μM, estradiol 100 nM
# [13] = HEP G2 (liver), no hormone, saturating hormone
# [14] = MDA453 (breast), no hormone, saturating hormone
# [15] = NIH 3T3 (fibroblast), no hormone, saturating hormone
# [16] = SHM (myometrium), no hormone, saturating hormone
# [17] = SY5Y (neuroblastoma), no hormone, saturating hormone
compound,measurement,setting,value
Nc1ncc2[nH]cnc2n1 [2-aminopurine],inhibition of hormone action at AP-1 sites,[1],inhibit hormone action at AP-1 sites
same,inhibition of the activation of AP-1 activity by HE15,[2],inhibit
CC/C(=C(\c1ccccc1)c1ccc(OCCN(C)C)cc1)c1ccc(O)cc1 [4′-hydroxytamoxifen],MCF-7 cell invasion activity of a re-constituted basement membrane,MCF-7 cell,stimulated
Nc1nc2nc[nH]c2c(=S)[nH]1 [6-thioguanine],inhibition of hormone action at AP-1 sites,[1],inhibit hormone action at AP-1 sites
same,inhibition of the activation of AP-1 activity by HE15,[2],inhibit
O=S(=O)(NCCNC/C=C/c1ccc(Br)cc1)c1cccc2cnccc12 [H89],inhibition of the activation of AP-1 activity by HE15,[2],did not
"CCCCN(C)C(=O)CCCCCCCCCC[C@@H]1Cc2cc(O)ccc2[C@H]2CC[C@]3(C)[C@@H](O)CC[C@H]3[C@H]12 [ICI 164,384]",Coll73 Luciferase Activity,[3]; [8],3.2
same,Coll73 Luciferase Activity,[3]; [9],1.8
same,Coll73 Luciferase Activity,[3]; [10],3.1
same,Coll73 Luciferase Activity,[3]; [11],2.4
same,Coll73 Luciferase Activity,[3]; [12],3.7
same,Coll73 Luciferase Activity,[3]; [13],5.2
same,"half maximal dose relative to that for estrogen, induction of coll73-LUC",[3],about 10 times
same,Coll73 Luciferase Activity,[3]; [14],1.1
same,Coll73 Luciferase Activity,[3]; [15],3.0
same,Coll73 Luciferase Activity,[3]; [16],1.9
same,Coll73 Luciferase Activity,[3]; [17],2.3
same,"activation of transcription, collagenase AP-1 site upstream of the herpes virus tk promoter",[4],able to activate transcription
same,activity at classical EREs,ER at classical ERE; range of cell types of Table I (data not shown),pure antagonist
same,activation of the collagenase promoter (coll73-CAT),[5],usually inactive
same,induction of the collagenase promoter (coll73-LUC),[5],inductions became detectable
same,expression of ERE-coll60,[6],neither ICI nor tamoxifen activated
same,inhibition of the series 4 estrogenic activity,[7],inhibit the estrogenic activity of all the series 4 compounds
same,MCF-7 cell invasion activity of a re-constituted basement membrane,MCF-7 cell,blocked
O=c1c(-c2ccc(O)cc2)coc2cc(O)cc(O)c12 [genistein],inhibition of hormone action at AP-1 sites,[1],inhibit hormone action at AP-1 sites
same,inhibition of the activation of AP-1 activity by HE15,[2],inhibit
CC/C(=C(\c1ccccc1)c1ccc(OCCN(C)C)cc1)c1ccccc1 [tamoxifen],Coll73 Luciferase Activity,[3]; [8],2.2
same,Coll73 Luciferase Activity,[3]; [9],2.2
same,Coll73 Luciferase Activity,[3]; [10],5.3
same,Coll73 Luciferase Activity,[3]; [11],1.1
same,Coll73 Luciferase Activity,[3]; [12],7.4
same,Coll73 Luciferase Activity,[3]; [13],6.5
same,"half maximal dose relative to that for estrogen, induction of coll73-LUC",[3],~100 times
same,Coll73 Luciferase Activity,[3]; [14],2.1
same,Coll73 Luciferase Activity,[3]; [15],3.1
same,Coll73 Luciferase Activity,[3]; [16],2.2
same,Coll73 Luciferase Activity,[3]; [17],2.1
same,"activation of transcription, collagenase AP-1 site upstream of the herpes virus tk promoter",[4],able to activate transcription
same,"activation of the collagenase promoter (coll517, coll73)","[4]; transiently expressed human ER, FIG. 2A",more potent an activator than estrogen
same,"inductions at classical EREs, % of estrogen",ER at classical ERE; CEF cells,30%
same,"inductions at classical EREs, % of estrogen",ER at classical ERE; CV-1 cells,30%
same,inductions of ERE-coll60 activity relative to those obtained with estrogen,"ER at classical ERE; HeLa cells, and most other cases",less than 3%
same,"inductions at classical EREs, % of estrogen",ER at classical ERE; MDA453 cells,30%
same,activation of the collagenase promoter (coll73-CAT),[5],activated
same,induction of the collagenase promoter (coll73-LUC),[5],inductions became larger
same,activation of the collagenase promoter,"[5]; MCF-7 cells, endogenous ER, FIG. 4B",not tamoxifen
same,activation of the collagenase promoter,[5]; ZR-75-1 cells,The same pattern occurred
same,expression of ERE-coll60,[6],neither ICI nor tamoxifen activated
calphostin c,inhibition of the activation of AP-1 activity by HE15,[2],did not

# — patent publication US6884577B2, “Methods for screening compounds for estrogenic activity” (The Regents of the University of California, priority 1993, dated 2005)
